The test system of one experiment is Cne H99 strain. Description: cell-based anti-Cryptococcus neoformans growth inhibition dose-response assay (resazurin to resorufin fluorescence). As to conditions: Cne H99, concentration series 0.02-50 μM, 24 hours incubation. The protocol: For primary screening, a cell-based high-throughput screening (HTS) assay was developed for testing the growth inhibition of Cne H99 strain of fungus. […] After standardizing the assay in 96 well plates, it was optimized in a 384-well plate.
The compound library included known bioactives, commercial libraries, and academic molecules. For HTS, the fungal cells were grown in SD broth overnight and diluted in Sabouraud dextrose (SD) broth to an optical density at 600 nm (OD600) of 0.5. […] From this cell suspension, 20 μL of the cells was added to each well of the 384-well assay plate (black, clear bottom) containing test compounds. Plates with test compounds were prepared by adding 20 μL of RPMI-MOPS medium to each well using a liquid dispenser (Thermo Multidrop Combi), followed by transferring 1 μL of the test compounds to all wells of the 22 columns in the assay plate using a robot. Dimethyl sulfoxide (DMSO) as vehicle control or 0.8 μM AmB as positive control was added manually to the remaining two columns using a multichannel pipet. […] Additionally, the absorbance was also read at 600 nm using the plate reader (EnVision, PerkinElmer).
Concentration series (0.02-50 μM) of test compounds and equalizing volume of DMSO were dispensed, using a liquid handler (D300e, Hewlett-Packard), to the 384-well plates. Following the addition of the Cne cells, the assay plates were incubated for 24 hours, followed by a fluorescence reading of resorufin as explained for single-concentration screening. The IC50 was calculated by graphpad prism.
What is called IC50 is the concentration needed to halve the response being measured. In turn, `Cc1ccccc1Nc1nc(Nc2ccccc2)c2cnn(C)c2n1` [compound 44] came in with an IC50 of 5.38 µM. This counts as single-digit micromolar. The compound `CC(C)CCNCC(O)Cn1c2ccc(Br)cc2c2cc(Br)ccc21` (stereo not shown) [compound 12] yielded an IC50 of 2.41 µM. Same read-out and setting: then `O=c1nc(SCc2ccc(F)cc2)c2c(n1Cc1ccccc1)CCC2` [compound 11], with 2.27 µM; and `NC(=O)c1cnc(NCCc2ccc(O)c(Cl)c2)nc1NCc1ccccc1` [compound 52], with 6.28 µM; and `O=C(O)c1ccc(-c2ccc3cc(C45CC6CC(CC(C6)C4)C5)c(O)cc3c2)cc1` [compound 13], with 2.46 µM. `COC(=O)c1sc(-c2cccs2)cc1N1C(=O)C=CC1=O` [compound 36] registered an IC50 of 4.87 µM. This IC50 is about 2-fold higher than that of the compound before.

In turn, `Clc1ccc(CCNc2ncnc3sccc23)cc1` [compound 1] showed an IC50 of 0.35 µM.

Regarding `COc1ccc(CC2NCC(O)C2OC(C)=O)cc1` (stereo not shown) [compound 81], inhibition was half-maximal at 9.69 µM (IC50).

On to `CCCCCCCCc1ccc(CCC(N)(CO)CO)cc1` [compound 35], for which the IC50 was determined as 4.76 µM. `CN1c2cc3c(cc2N=C(c2ccc(C(=O)O)cc2)c2ccccc21)C(C)(C)CCC3(C)C` [compound 88] had an IC50 of 10.1 µM.

Compound `CCOC(=O)c1sc(NC(=O)c2ccco2)c(SC#N)c1C` [compound 22] displayed an IC50 of 3.11 µM. The same measure, in the same setting: as for `Cc1ccc(S(=O)(=O)C=CC#N)cc1` [compound 39], the figure is 5.07 µM. As to `Nc1ccc2ncnc(NCCc3ccc(Oc4ccccc4)cc3)c2c1` [compound 10], it took 1.83 µM to reach half-maximal inhibition (IC50). Against the preceding compound, the IC50 is about 2.8-fold lower. `c1ccc(CN2CCOc3ccccc3CCCCC3(CCNCC3)C2)cc1` [compound 2] returned an IC50 of 0.57 µM. `COc1ccc(OCc2nnc3sc(-c4ccc5c(c4)OCCO5)nn23)cc1` [compound 3] returned an IC50 of 0.6 µM.

The compound `Cc1cc(C)cc(N2C(=O)C=CC2=O)c1` [compound 42] showed an IC50 of 5.31 µM. Still for that read-out and setting: as for `Cc1cc(Nc2nc(NC(C)c3ccc(F)cc3)c(C#N)cc2F)n[nH]1` (stereo not shown) [compound 89], the figure is 10.4 µM; as for `Clc1cc(Cl)c(OCC#CI)cc1Cl` [compound 6], 1.44 µM. For `CCCCOc1ccc(-c2cc3c(N4CCN(CC)CC4)nccn3n2)cc1` [compound 69], the IC50 was found to be 8.19 µM. Against the preceding compound, the IC50 is about 5.7-fold higher. `CCC(C)c1ccc(N2C(=O)C=CC2=O)cc1` (stereo not shown) [compound 45] showed an IC50 of 5.49 µM. For the compound `C(=N/n1cnnc1)/c1ccc(N(c2ccccc2)c2ccccc2)cc1` [compound 90], inhibition was half-maximal at 10.5 µM (IC50). This IC50 lies about 1.9-fold higher than the previous one.

Still in this experiment, the particulars now being: Cryptococcus neoformans, H99STRAIN, Cne H99, concentration series 0.02-50 μM, 24 hours incubation.
Compound `Nc1nc2ccc(Oc3ccccc3)cc2s1` [compound 78] came in with an IC50 of 9.2 µM.

In turn, `O=C1C=CC(=O)N1c1ccccc1Oc1ccc(Cl)cc1Cl` [compound 80] displayed an IC50 of 9.65 µM.

With `Clc1ccc(C(c2ccc(Cl)cc2)[n+]2ccn(CC(OCc3ccc(Cl)cc3Cl)c3ccc(Cl)cc3Cl)c2)cc1` (stereo not shown) [compound 17], half-maximal inhibition (IC50) was put at 2.63 µM. The same measure, in the same setting: as for `Clc1ccc(-c2ccc(CNCc3ccccn3)o2)c(Cl)c1` [compound 72], the figure is 8.46 µM; as for `OCCCNc1cc(-c2ccnc(Nc3cccc(Cl)c3)n2)ccn1` [compound 8], 1.66 µM. On the same count and under the same terms, as for `Cc1ccc(CNc2nc(C)nc3onc(C)c23)cc1` [compound 18], the figure is 2.73 µM; as for `CCc1noc2nc(C)nc(NCCC3=CCCCC3)c12` [compound 23], 3.14 µM.

On to `CC(C)c1ccc2c(c1)CCC1C(C)(CN)CCCC21C` (stereo not shown) [compound 73], for which the IC50 stood at 8.59 µM. Still for that read-out and setting: as for `O=C(Nc1ccc(Br)c(C(F)(F)F)c1)c1cccs1` [compound 38], the figure is 4.96 µM; as for `O=c1cc(-c2ccccc2)cc(-c2ccccc2)n1O` [compound 74], 8.63 µM. The same measure, in the same setting: as for `CCN(CC)c1cc(C)c2cc(NC(=O)Nc3ccc(Br)cc3)ccc2n1` [compound 71], the figure is 8.38 µM; as for `Clc1ccc(-c2ccc(CNCc3ccc4c(c3)OCO4)o2)cc1` [compound 55], 6.59 µM; as for `CC1CCN(c2nc(Cl)nc3ccccc23)CC1` [compound 77], 9.01 µM.

For the compound `O=C1C=CC(=O)N1Cc1ccc(Cl)cc1` [compound 67], the IC50 worked out at 8.09 µM. This IC50 and that of the compound before are within 1.5-fold of each other.

Compound `O=C1C=CC(=O)N1CCc1ccccc1` [compound 48] returned an IC50 of 5.63 µM. The same measure, in the same setting: then `CC(C)CCOc1cccc(OCC(=O)Nc2ccncc2)c1` [compound 30], with 3.94 µM; and `Cc1ccc2nc(-c3ccc(N4C(=O)CC(N5CCC(C)CC5)C4=O)cc3)sc2c1` (stereo not shown) [compound 61], with 7.28 µM; and `Cc1ccc(Sc2cccc3nc(N)nc(N)c23)cc1` [compound 76], with 8.75 µM. Still for that read-out and setting: as for `Cc1cccc2c1-c1sc(C(=O)NCCCN3CCC(Cc4ccccc4)CC3)cc1CO2` [compound 15], the figure is 2.53 µM; as for `O=C1C=CC(=O)N1c1ccccc1Br` [compound 32], 4.61 µM; as for `OC(CNCc1ccc(-c2cc(Cl)ccc2Cl)o1)c1ccccc1` (stereo not shown) [compound 82], 9.78 µM.

In turn, `COc1ccc(OCc2nnc3sc(-c4ccc(OC)c(OC)c4)nn23)cc1` [compound 47] showed an IC50 of 5.59 µM.

With `CCc1ccc(-c2nc3ccccn3c2CNCc2cccc(C)c2)cc1` [compound 91], 10.7 µM corresponded to half-maximal inhibition (IC50). Still for that read-out and setting: then `c1ccc(CCNc2ncnc3ccsc23)cc1` [compound 49], with 5.83 µM; and `Brc1ccc(-c2ccc(CNCc3ccc4c(c3)OCO4)o2)cc1` [compound 68], with 8.1 µM. In turn, `COc1cc(Nc2ncc3ccn(-c4cccc(CCC#N)c4)c3n2)cc(OC)c1OC` [compound 57] yielded an IC50 of 6.84 µM. The same measure, in the same setting: then `COc1ccc(-c2cc(C(=O)NCCN3CCCCC3)c3cccc(-c4ccc(F)cc4)c3n2)cc1` [compound 75], with 8.74 µM.

As to `Cc1ccc(Nc2nc3nonc3nc2Nc2ccccc2F)cc1Cl` [compound 24], half-maximal inhibition (IC50) required 3.15 µM. In the case of `CSc1cccc(N2C(=O)C=CC2=O)c1` [compound 70], the midpoint of inhibition, the IC50, lay at 8.2 µM. Compared with the last compound, the IC50 is about 2.6-fold higher. Same read-out and setting: as for `CC(C)(c1ccc(OCC2CO2)cc1)c1ccc(OCC2CO2)cc1` (stereo not shown) [compound 54], the figure is 6.42 µM; as for `O=C(NNc1ccccc1)c1ccncc1` [compound 25], 3.1 µM; as for `Cc1nc(NCCC2=CCCCC2)c2c(C)noc2n1` [compound 19], 2.92 µM. On to `Cc1noc2ncnc(N3CCC(c4ccccc4)C3)c12` (stereo not shown) [compound 53], for which the IC50 is 6.29 µM. Same read-out and setting: then `CCCCCCCCCCCCCCCC[N+](C)(C)CCN(Cc1ccc(OC)cc1)c1ncccn1` [compound 28], with 3.39 µM.

`CN(C)CC1COc2ccccc2C1=O` (stereo not shown) [compound 79] showed an IC50 of 9.27 µM. Still for that read-out and setting: then `CC[n+]1c(/C=C/C=C2/N(C)c3ccccc3C2(C)C)sc2ccccc21` [compound 7], with 1.57 µM; and `O=C1C=CC(=O)N1c1ccc(-n2ccc(C(F)(F)F)n2)cc1` [compound 60], with 7.06 µM. Still for that read-out and setting: then `COc1cccc(-c2cc(F)ccc2[C@H]2Cc3nc(N)nc(C)c3C(=O)N2)n1` [compound 29], with 3.62 µM; and `Cc1oc2ncnc(N3CCC(C(=O)NCc4ccc(Cl)cc4)CC3)c2c1C` [compound 58], with 6.87 µM.

The compound `O=c1nc(SCc2ccccc2)c2c(n1Cc1ccccc1)CCC2` [compound 21] showed an IC50 of 3 µM. This IC50 is about 2.3-fold lower than that of the compound before. `CCOC(=O)C1CCN(c2ncnc3scc(C)c23)CC1` [compound 56] showed an IC50 of 6.6 µM. On the same count and under the same terms, then `c1cc2c(cc1C1CCCCC1)c1c3n2CCNC3CCC1` (stereo not shown) [compound 14], with 2.52 µM; and `OC(CNCc1ccc(-c2ccc(Cl)cc2Cl)o1)c1ccccc1` (stereo not shown) [compound 51], with 6.09 µM; and `O=[N+]([O-])/C=C/c1ccc2c(c1)OCO2` [compound 43], with 5.31 µM. On the same count and under the same terms, as for `Brc1ccc(-c2ccc(CNCc3ccco3)o2)cc1` [compound 85], the figure is 9.96 µM; as for `O=C(Nc1ccc(F)c(Cl)c1)c1ccc(Nc2ccnc(-c3ccc(F)cc3)n2)cc1` [compound 63], 7.65 µM.

`O=c1c2ccccc2oc2cc(O)cc(O)c12` [compound 62] yielded an IC50 of 7.59 µM.

Regarding `COC(=O)Nc1nc2cc(SC(C)C)ccc2[nH]1` [compound 40], the IC50 turned out to be 5.08 µM.

In the case of `Cc1c(Cl)cccc1N1C(=O)C=CC1=O` [compound 20], the IC50 worked out at 2.95 µM. This IC50 lies about 1.7-fold lower than the previous one.

In turn, `CCCCc1ccc(N2C(=O)C=CC2=O)cc1` [compound 27] displayed an IC50 of 3.22 µM. As for `Cc1nn2c(NCCN(C)C)cc(C(C)(C)C)nc2c1-c1ccc(F)cc1` [compound 83], inhibition was half-maximal at 9.92 µM (IC50). This IC50 lies about 3.1-fold higher than the previous one.

Regarding `Oc1cccnc1NC(c1ccc(Cl)cc1)c1ccc2cccnc2c1O` (stereo not shown) [compound 33], half-maximal inhibition (IC50) was put at 4.63 µM. The same measure, in the same setting: then `CCn1c2ccccc2c2cc(N3C(=O)C=CC3=O)ccc21` [compound 26], with 3.18 µM. Same read-out and setting: as for `CCCCCCCCCOc1ccc2[nH]cc(CCN)c2c1` [compound 50], the figure is 6.04 µM.

In turn, `Cc1ccc(Cl)cc1N1CCN(C(=O)C2CCN(Cc3nc(-c4ccc(Cl)cc4)oc3C)CC2)CC1` [compound 59] gave an IC50 of 6.93 µM.

On to `CNC(=O)c1ccccc1Nc1nc(Nc2ccc(N3CCOCC3)cc2OC)ncc1Cl` [compound 16], for which the IC50 came to 2.57 µM. In turn, `CN1CCC(C(=O)N2CCC3(CCCCc4ccccc4OCCN(Cc4ccccc4)C3)CC2)CC1` [compound 87] came in with an IC50 of 10.1 µM. For `CC(C)(C)c1cc(C=C(C#N)C#N)cc(C(C)(C)C)c1O` [compound 65], half-maximal inhibition (IC50) required 7.87 µM.
